Blank lines part the entries; values can stand above or below the molecule they belong to.
B2: human glycogen synthase GYS1 (aa 1–737), untagged, as in the GYS1–GYG1^ΔCD complex (enzyme, UniProt P13807 1-737, looked up)
chain: MPLNRTLSMSSLPGLEDWEDEFDLENAVLFEVAWEVANKVGGIYTVLQTKAKVTGDEWGDNYFLVGPYTEQGVRTQVELLEAPTPALKRTLDSMNSKGCKVYFGRWLIEGGPLVVLLDVGASAWALERWKGELWDTCNIGVPWYDREANDAVLFGFLTTWFLGEFLAQSEEKPHVVAHFHEWLAGVGLCLCRARRLPVATIFTTHATLLGRYLCAGAVDFYNNLENFNVDKEAGERQIYHRYCMERAAAHCAHVFTTVSQITAIEAQHLLKRKPDIVTPNGLNVKKFSAMHEFQNLHAQSKARIQEFVRGHFYGHLDFNLDKTLYFFIAGRYEFSNKGADVFLEALARLNYLLRVNGSEQTVVAFFIMPARTNNFNVETLKGQAVRKQLWDTANTVKEKFGRKLYESLLVGSLPDMNKMLDKEDFTMMKRAIFATQRQSFPPVCTHNMLDDSSDPILTTIRRIGLFNSSADRVKVIFHPEFLSSTSPLLPVDYEEFVRGCHLGVFPSYYEPWGYTPAECTVMGIPSISTNLSGFGCFMEEHIADPSAYGIYILDRRFRSLDDSCSQLTSFLYSFCQQSRRQRIIQRNRTERLSDLLDWKYLGRYYMSARHMALSKAFPEHFTYEPNEADAAQGYRYPRPASVPPSPSLSRHSSPHQSEDEEDPRNGPLEEDGERYDEDEEAAKDRRNIRAPEWPRRASCTSSTSGSKRNSVDTATSSSLSTPSEPLSPTSSLGEERN
modifications: multiply phosphorylated (intact mass spectrometry); phosphorylated Ser641 (site 3a) modelled in the inhibited state
notes: human glycogen synthase GYS1 (muscle isoform), amino acids 1–737, codon-optimized synthetic gene; Homotetramer (dimer of dimers) in the cryo-EM structures; source: Sf9 cells, coexpressed with His6-GST-GYG1 294–350 from a bicistronic construct, purified (Ni-Sepharose, Superose 6)

Columns and labels:
Glycogen synthase (GYS1) [1] = target: T1, Glycogen synthase (GYS1) (Homo sapiens, UniProt P13807); test: cryo-EM structure at […] Å with Glc6P and UDP-glc added (UDP-glc hydrolysed); type: binding
T1 construct: full-length GYS1 (aa 1–737) coexpressed with GYG1 aa 294–350 (GYS1–GYG1^ΔCD); with GYG1 (aa 294–350)
T1 sequence (P13807 1-737): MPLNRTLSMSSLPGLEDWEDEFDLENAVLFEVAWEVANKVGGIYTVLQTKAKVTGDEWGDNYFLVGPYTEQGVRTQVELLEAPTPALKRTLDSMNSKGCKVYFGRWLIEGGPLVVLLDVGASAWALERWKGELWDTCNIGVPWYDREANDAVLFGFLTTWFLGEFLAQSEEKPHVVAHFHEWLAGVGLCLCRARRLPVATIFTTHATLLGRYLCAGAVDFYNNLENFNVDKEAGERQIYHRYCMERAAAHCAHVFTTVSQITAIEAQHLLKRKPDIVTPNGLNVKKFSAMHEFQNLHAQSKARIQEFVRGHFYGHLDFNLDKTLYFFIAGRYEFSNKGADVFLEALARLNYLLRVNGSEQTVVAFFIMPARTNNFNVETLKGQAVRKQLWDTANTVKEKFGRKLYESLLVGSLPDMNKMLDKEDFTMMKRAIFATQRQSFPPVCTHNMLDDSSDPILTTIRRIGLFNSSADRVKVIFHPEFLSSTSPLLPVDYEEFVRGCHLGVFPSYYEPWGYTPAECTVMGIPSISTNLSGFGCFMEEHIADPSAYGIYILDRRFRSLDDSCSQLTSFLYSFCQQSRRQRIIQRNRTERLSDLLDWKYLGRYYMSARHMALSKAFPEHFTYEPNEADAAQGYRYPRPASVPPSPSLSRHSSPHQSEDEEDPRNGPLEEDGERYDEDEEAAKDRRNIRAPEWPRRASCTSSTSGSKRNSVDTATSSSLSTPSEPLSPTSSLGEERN
T1 sequence (P46976 294-350 partner): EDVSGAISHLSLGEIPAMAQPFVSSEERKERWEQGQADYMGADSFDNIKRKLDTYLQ

Glycogen synthase (GYS1) [2] = target: T1, Glycogen synthase (GYS1); test: cryo-EM structures (7Q13 […] Å; also 7Q12, 7Q0S); thermal shift titration, AC50 of PP1c-dephosphorylated GYS1–GYG1^ΔCD; type: binding
PTG (PPP1R3C) [3] = target: T2, PTG (PPP1R3C) (Homo sapiens, UniProt Q9UQK1); test: thermal shift assay titration (AC50); type: binding
T2 construct: CBM21 domain, aa 134–259
T2 sequence (Q9UQK1 134-259): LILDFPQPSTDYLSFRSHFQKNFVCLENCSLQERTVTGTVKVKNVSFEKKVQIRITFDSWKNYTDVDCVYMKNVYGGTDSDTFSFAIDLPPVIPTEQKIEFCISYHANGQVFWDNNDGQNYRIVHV

PTG (PPP1R3C) [4] = target: T2, PTG (PPP1R3C); test: thermal shift assay (no Kd); type: binding
[5] = target: T3, GYS1–GYG1^FL complex (full-length human GYS1 with full-length glucosylated GYG1) (human, UniProt P13807 1-737; P46976-1 1-350, heterogeneous phosphorylation | glucosylated (GYG1 is attached with a glucose chain), heterogeneous); test: pull-down; His-PPP1R3C (1.0 mg ml^-1) preincubated with GYS1–GYG1 complex (0.25 mg ml^-1) or GYG1 (0.5 mg ml^-1) for 30 min at 4 °C, captured on Talon resin in 25 mM HEPES pH 7.5, 100 mM NaCl, 1 mM TCEP, 0.2% Tween-20; wash with 10 mM imidazole; SDS-PAGE, Coomassie; settings: both partners purified
T3 construct: human glycogen synthase GYS1, full length; human glycogenin-1 (GYG1), isoform GN-1L, UniProt P46976-1, full length; source: Sf9 cells, coexpressed, purified (Ni-Sepharose, Superose 6, TEV treatment); not shown: His6, N-terminal, cleaved
T3 sequence (looked up) 1: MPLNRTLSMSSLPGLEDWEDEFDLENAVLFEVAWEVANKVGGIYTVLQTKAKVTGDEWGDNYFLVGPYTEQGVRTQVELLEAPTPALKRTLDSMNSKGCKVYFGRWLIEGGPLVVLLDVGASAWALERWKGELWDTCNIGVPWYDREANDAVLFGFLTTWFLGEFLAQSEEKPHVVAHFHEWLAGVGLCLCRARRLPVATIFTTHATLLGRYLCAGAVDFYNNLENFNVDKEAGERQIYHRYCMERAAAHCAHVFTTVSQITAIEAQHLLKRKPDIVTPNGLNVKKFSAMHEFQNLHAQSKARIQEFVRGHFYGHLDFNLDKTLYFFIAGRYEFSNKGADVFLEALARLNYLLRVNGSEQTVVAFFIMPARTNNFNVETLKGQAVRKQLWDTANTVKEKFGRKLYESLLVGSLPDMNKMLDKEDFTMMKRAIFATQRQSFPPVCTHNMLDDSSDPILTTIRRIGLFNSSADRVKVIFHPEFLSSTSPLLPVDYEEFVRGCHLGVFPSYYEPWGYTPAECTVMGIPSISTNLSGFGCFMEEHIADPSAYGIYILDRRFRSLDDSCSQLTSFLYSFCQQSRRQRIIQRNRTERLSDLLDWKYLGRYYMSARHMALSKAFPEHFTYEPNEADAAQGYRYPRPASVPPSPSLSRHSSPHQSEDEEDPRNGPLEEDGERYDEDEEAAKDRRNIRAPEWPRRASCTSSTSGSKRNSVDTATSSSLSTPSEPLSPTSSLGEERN
T3 sequence (looked up) 2: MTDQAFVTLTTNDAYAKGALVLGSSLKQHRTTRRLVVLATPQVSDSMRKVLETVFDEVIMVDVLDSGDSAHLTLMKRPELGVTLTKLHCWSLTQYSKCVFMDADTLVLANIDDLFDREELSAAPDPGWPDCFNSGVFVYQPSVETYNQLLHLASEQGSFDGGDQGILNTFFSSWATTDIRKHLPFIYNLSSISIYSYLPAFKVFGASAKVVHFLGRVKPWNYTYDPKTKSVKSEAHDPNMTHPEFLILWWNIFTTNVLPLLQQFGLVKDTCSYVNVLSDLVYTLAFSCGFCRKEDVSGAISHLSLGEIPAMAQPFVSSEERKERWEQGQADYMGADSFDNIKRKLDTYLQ

[6] = target: the molecule itself; test: cryo-EM structure; GYS1–GYG1^ΔCD at 0.75 or 0.5 mg ml^-1 in 25 mM HEPES pH 7.5, 200 mM NaCl, 2.0 mM TCEP, 0.05% Tween-20; as purified (inhibited state), with 5 mM Glc6P (inhibited-like and activated states), with 5 mM Glc6P and 5 mM UDP-Glc (activated state); D2 symmetry
[7] = target: B2; test: as above; settings: both partners purified

Molecule: OC[C@H]1OC(O)[C@H](O)[C@@H](O)[C@@H]1O (stereo partly shown) [GLC, glucose]
cryo-EM structure at 3.0 Å with Glc6P and UDP-glc added (UDP-glc hydrolysed) (Glycogen synthase (GYS1) [1]): The hydrolysed glucose molecule formed multiple hydrogen bonds with the side chains of Arg211, Arg311, Glu510 and Tyr514

AC50 (Glycogen synthase (GYS1) [2]): 1500 ± 200 µM
Molecule: O=P(O)(O)OC[C@H]1OC(O)[C@H](O)[C@@H](O)[C@@H]1O (stereo partly shown) [Glc6P, glucose-6-phosphate]

AC50 (PTG (PPP1R3C) [3]): 2400 ± 600 µM
Molecule: OC[C@H]1O[C@H](O[C@H]2[C@H](O)[C@@H](O)[C@@H](O[C@H]3[C@H](O)[C@@H](O)[C@@H](O[C@H]4[C@H](O)[C@@H](O)[C@@H](O[C@H]5[C@H](O)[C@@H](O)[C@@H](O[C@H]6[C@H](O)[C@@H](O)[C@@H](O[C@H]7[C@H](O)[C@@H](O)C(O)O[C@@H]7CO)O[C@@H]6CO)O[C@@H]5CO)O[C@@H]4CO)O[C@@H]3CO)O[C@@H]2CO)[C@H](O)[C@@H](O)[C@@H]1O (stereo partly shown) [maltoheptaose]

Molecule: OC[C@H]1O[C@H](O[C@H]2[C@H](O)[C@@H](O)[C@@H](O[C@H]3[C@H](O)[C@@H](O)[C@@H](O[C@H]4[C@H](O)[C@@H](O)C(O)O[C@@H]4CO)O[C@@H]3CO)O[C@@H]2CO)[C@H](O)[C@@H](O)[C@@H]1O (stereo partly shown) [maltotetraose]
thermal shift assay (no Kd) (PTG (PPP1R3C) [4]): Glycogen, debranched glycogen, maltotetraose and maltoheptaose increased the thermostability of PTG(CBM21)

binding result [5]: binds
B1: human PTG (PPP1R3C) aa 134–259, CBM21 domain construct, His-tagged (domain or fragment, UniProt Q9UQK1 134-259, looked up)
chain: LILDFPQPSTDYLSFRSHFQKNFVCLENCSLQERTVTGTVKVKNVSFEKKVQIRITFDSWKNYTDVDCVYMKNVYGGTDSDTFSFAIDLPPVIPTEQKIEFCISYHANGQVFWDNNDGQNYRIVHV
notes: The His6-tag is TEV-cleavable but was kept: the protein was captured on Talon resin by it; also called PTG(CBM21); His-PPP1R3C; source: cultured in autoinduction Terrific Broth, purified (Ni-Sepharose, Superdex 75); not shown: His6, N-terminal, kept

Molecule: B2
stoichiometry N [6]: 4

stoichiometry N [7]: 1
B3: human GYG1 C terminus, aa 294–350 (GYG1^ΔCD) (domain or fragment, UniProt P46976-1 294-350, looked up)
chain: EDVSGAISHLSLGEIPAMAQPFVSSEERKERWEQGQADYMGADSFDNIKRKLDTYLQ
notes: human glycogenin-1 (GYG1), isoform GN-1L, UniProt P46976-1, amino acids 294–350, codon-optimized synthetic gene; Residues 317–349 were modelled in the cryo-EM map; The methods name MBP-His6, His6-GST and His6-GFP tags as tried; the results name His6-GST for the bicistronic constructs; also called GYG1 294–350; not shown: His6-GST, N-terminal, cleaved

— article PMC9287172, “Molecular basis for the regulation of human glycogen synthase by phosphorylation and glucose-6-phosphate” (Nature Structural & Molecular Biology, 2022)
